Patent publication US20230172912A1, “COMPOUNDS FOR TREATING PNEUMONIA, SEPSIS, AND CORONAVIRUS INFECTION” (HEIDELBERG IMMUNOTHERAPEUTICS GMBH, priority 2020, published 2023)
Where “and” joins values, the source holds several entries; their conditions need not be identical. Identical values can stand only once. Like-named read-outs stand apart in the source and are kept apart here.

What was measured:
[1] = tested on: severe COVID-19 (SARS-CoV-2 infection); format: in vivo
SARS-CoV-2 pneumonia = experiment: Time course of clinical inflammation parameters (CRP, transferrin saturation, IL-6) in serum of COVID-19 pneumonia patients; format: in vivo, human; conditions: COVID-19 pneumonia patients on standard therapy (piperacillin/tazobactam, caspofungin, hydroxychloroquine), FIG. 1
Experimental: Patients with diagnosed SARS-CoV-2 pneumonia received standard therapy with piperacillin/tazobactam, caspofungin, and hydroxychloroquine; where deemed clinically necessary, additionally Maraviroc, a CCR5 inhibitor, was administered as indicated in FIG. 1.
Patient characteristics were as follows: • Patient A (FIG. 1A): person, no relevant previous disease; • Patient B (FIG. 1B): person; • Patient C (FIG. 1C): person, no relevant previous disease; • Patient D (FIG. 1 D): person, state after chemotherapy for Burkitt lymphoma; under artificial respiration; • Patient E (FIG. 1E): person; • Patient F (FIG. 1 F): person; • Patient G (FIG. 1G): person, under artificial respiration; • Patient H (FIG. 1 H):person; • Patient I (FIG. 1 I): person; • Patient K (FIG. 1 K): person

[2] = tested on: serum cytokines and chemokines (IL-6, MIP-1b, IP-10, M-CSF); experiment: Clinical laboratory IL-6 and research serum cytokine and chemokine multiplex analysis before and after maraviroc; format: in vivo, human
Experimental: (§1) Clinical laboratory parameters were monitored daily. If patients gave voluntary consent, additional blood for cytokine and chemokine profiling in a research context was obtained and stored at -80° C. until use in the multiplex analysis (Bio-Plex Pro Human Cytokine 48-Plex Screening Panel plus ICAM and VCAM, Biorad, Munich, Germany) as described previously (Halama N, Michel S, Kloor M, et al., Cancer Res 2011;71:5670-7). Median protein concentrations per patient were compared in two groups: before and five or more days after the first day of maraviroc treatment.
For research cytokine analyses, cytokines which were undetectable in more than 3 samples were excluded. Correction for batch effects from three experiments was performed using the Python packagepycombat (version 0.14), and was validated by analyzing the mixture of samples within UMAP embeddings (McInnes L, Healy J, Melville J. UMAP: Uniform Manifold Approximation and Projection for Dimension Reduction. arXiv 2018). Wilcoxon signed-rank tests were used when comparing cytokine concentrations between groups. Resulting p-values were adjusted for multiple hypothesis testing according to the Benjamini and Hochberg method (Benjamini Y, Hochberg Y., J R Stat Soc B 1995;57:289-300). Kaplan-Meier estimator of survival was employed to visualize cumulative clinical improvement. Hazard ratio and the logrank test were used to compare improvement between patients in different groups using the R packages survival, survminer, and cmprsk. Stated percentages and quartiles include rounded numbers. Statistical analyses were carried out using R-3.5.3, Python-3.6.4, Excel (Microsoft), and SigmaPlot (Systat Software, Inc).

[3] = Safety and clinical laboratory parameters during maraviroc treatment of severe COVID-19; format: in vivo, human
Experimental: as §1
Monitoring of clinical laboratory parameters also included, among others, serum levels of creatinine for kidney function, white blood count, lymphocyte count, and interleukin 6 (IL-6) as markers of inflammation and infection.

SARS-CoV-2 = conditions: severe COVID-19 cases; preprint; cited from earlier work
interleukin 6 (IL-6) = conditions: 5 of 6 patients (range 83 to 8175 pg per milliliter), three days after administration; cited from earlier work
[4] = patients who received at least one dose before or concomitant to maraviroc
[5] = serum, subset of 14 patients, p<0.05, not significant after adjustment for multiple testing
[6] = Patient 43, day 5, decreased on days 6 and 7

Molecule: C[C@]12C=CC(=O)C=C1CC[C@@H]1[C@@H]2[C@@H](O)C[C@@]2(C)[C@H]1CC[C@]2(O)C(=O)CO [prednisolone]
- number of patients who died ([1]; in vivo): 1
- number of patients improved on the ordinal scale from baseline [1, 4]: 3 of 7
- number of patients with no change on the ordinal scale from baseline [1, 4]: 2
- number of patients worsened on the ordinal scale from baseline [1, 4]: 2

Molecule: tocilizumab: concomitant investigational treatment
- number of patients who died [1, 4]: 3
- number of patients with no change on the ordinal scale from baseline [1, 4]: 1 of 4
- number of patients worsened on the ordinal scale from baseline [1, 4]: 3

Molecule: Cc1nnc(C(C)C)n1[C@@H]1C[C@H]2CC[C@@H](C1)N2CC[C@H](NC(=O)C1CCC(F)(F)CC1)c1ccccc1 [maraviroc, 4,4-difluoro—N—[(1S)-3-[(1S,5R)-3-(3-methyl-5-propan-2-yl-1,2,4-triazol-4-yl)-8-azabicyclo[3.2.1]octan-8-yl]-1-phenylpropyl]cyclohexane-1-carboxamide]
- increase of inflammation markers after administration (SARS-CoV-2 pneumonia): reverted in a very fast manner in all cases
- change in concentration of MIP-1b (CCL4) from before to after treatment ([2]; serum, subset of 14 patients, after = 5 days or more after baseline, FIG. 5): significant increase
- change in IP-10 (CXCL10) from before to after treatment [2, 5]: decrease
- change in M-CSF (CSF1) from before to after treatment [2, 5]: decrease
- median IL-6 level ([2]; three days after administration, decrease from baseline median 74.7 pg per milliliter, p-value=0.002): 37.7 pg per milliliter
- median time to a substantial clinical improvement from baseline ([1]; IQR 7-16 days): 9 days
- median time to improvement on the ordinal scale from baseline ([1]; all patients who improved, IQR 5-13 days): 8 days
- patients with improvement on the 6-stage ordinal scale ([1]; breathing ambient air at baseline, 2 of 2 patients): 100%
- patients worsened (died), mortality ([1]; invasive mechanical ventilation at baseline, 1 of 11 patients, 40 day observational period): 9.1% and 9%
- patients remained under invasive ventilation ([1]; invasive ventilation at baseline, 2 of 11 patients): 18.2%
- patients with improvement on the 6-stage ordinal scale ([1]; invasive ventilation at baseline, 8 of 11 patients): 72.7%
- median time to improvement on the ordinal scale from baseline ([1]; invasive ventilation at baseline, IQR 5-19 days): 14 days
- patients showing an improvement during the observational period ([1]; maraviroc patients not treated with HCQ, 14 of 18): 77.9%
- median time to improvement ([1]; maraviroc patients not treated with HCQ, IQR 3-11 days): 7 days
- patients showing an improvement during the observational period ([1]; maraviroc patients treated with at least one dose of HCQ, 22 of 29): 75.9%
- median time to improvement ([1]; maraviroc patients treated with at least one dose of HCQ, IQR 3-13 days): 6 days
- patients with improvement on the 6-stage ordinal scale ([1]; non-invasive ventilation at baseline, 7 of 11 patients): 63.6%
- median time to improvement on the ordinal scale from baseline ([1]; not receiving invasive ventilation at baseline, IQR 5-11 days): 7 days
- patients worsened from non-invasive to invasive ventilation ([1]; one patient of 47, after or during maraviroc treatment): 2.1%
- patients with no change on the 6-stage ordinal scale ([1]; overall cohort, 4 of 47 patients): 8.5%
- deaths (overall mortality) ([1]; overall cohort, 5 of 47 patients, 40 day time frame, median follow-up 12 days): 11%
- patients worsened on the 6-stage ordinal scale ([1]; overall cohort, 6 of 47 patients, including deaths): 12.8%
- patients discharged ([1]; overall cohort, 29 of 47 patients): 61.7%
- patients with substantial clinical improvement (decrease of two stages or more or discharge) ([1]; overall cohort, 34 of 47 patients, day of final data acquisition): 72%
- patients with improvement on the 6-stage ordinal scale ([1]; overall cohort, 37 of 47 patients, baseline until last day of data acquisition): 78.7%
- clinical outcome of coronavirus infection / severe COVID-19 cases ([1]; overall statement): remarkably positive clinical outcomes
- patients with improvement on the 6-stage ordinal scale ([1]; supplemental low-flow oxygen at baseline, 20 of 23 patients): 87%
- patients with no change ([1]; without invasive mechanical ventilation at baseline, 2 of 36 patients): 5.6%
- patients worsened ([1]; without invasive mechanical ventilation at baseline, 5 of 36 patients): 13.9%
- patients improved ([1]; without invasive mechanical ventilation at baseline, 29 of 36 patients): 80.6%
- novel adverse events ([3]; 47 severe COVID-19 patients): no novel AEs have been observed
- increase in ALT from baseline [3, 6]: 2.8 fold
- increase in AST from baseline [3, 6]: 3.6 fold
- adverse event grade (CTCAE v5.0) ([3]; Patient 43, liver function): grade 2, moderate liver function AE
- other changes of clinical laboratory parameters ([3]; creatinine, white blood count, lymphocyte count, IL-6 among others, monitored daily): no other clinically significant changes were observed

B1: leronlimab: humanized IgG4 monoclonal antibody that blocks the chemokine receptor CCR5 on immune cells (antibody, chains of the INN, looked up, V domains shown)
VH: EVQLVESGGGLVKPGGSLRLSCAASGYTFSNYWIGWVRQAPGKGLEWIGDIYPGGNYIRNNEKFKDKTTLSADTSKNTAYLQMNSLKTEDTAVYYCGSSFGSNYVFAWFTYWGQGTLVTVSS
VL: DIVMTQSPLSLPVTPGEPASISCRSSQRLLSSYGHTYLHWYLQKPGQSPQLLIYEVSNRFSGVPDRFSGSGSGTDFTLKISRVEAEDVGVYYCSQSTHVPLTFGQGTKVEIK
- change in plasma viral load (SARS-CoV-2): decrease
- change of high IL-6 levels (interleukin 6 (IL-6)): decreased substantially
